Data as given in publication PMC11652885, “Natural volatiles preventing mosquito biting: An integrated screening platform for accelerated discovery of ORco antagonists” (The Journal of Biological Chemistry, 2024).

Each molecule was assayed on Aedes albopictus (assay: Hand in a cage repellence bioassay (human hand landing counts)). Settings: dose 50 nmole/cm^2; preliminary tests, data not shown.
Format: in vivo
With `CCCC=CC=CC=O` [compound 39, 2,4-Octadienal] the “repellence index (RI)” value was 30%-50%. For `CCCCC/C=C\CCO` [compound 54, (Z)-3-Nonen-1-ol], the “repellence index (RI)” value was 30%-50%. With `CC1(C)C2CC3OC3(C)C1C2` (stereo not drawn) [compound 62, α-Pinene oxide] the “repellence index (RI)” value was 30%-50%. `CC1(C)C2CCC1(C)C(O)C2` (centres unmarked) [compound 64, Borneol] was tested, and the “repellence index (RI)” value was “high activities”. In the case of `Cc1ccc2ccccc2n1` [compound 66, 2-Methylquinoline], the “repellence index (RI)” value was “high activities”. `CC(C)=CCC[C@](C)(O)[C@@H]1CC=C(C)CC1` [compound 77, α-Bisabolol] was tested, and the “repellence index (RI)” value was 30%-50%. With `CC(C)CCCCCCCCC=CCC#N` [compound 83, 13-Methyltetradec-3-ene nitrile] the “repellence index (RI)” value was “high activities”. `CC(C)C/C=C1/C(=O)OCC1C` (centres unmarked) [compound 98, (E)-3-Methyl-2-(3-methylbutyliden)-4-butanolide] was tested, and the “repellence index (RI)” value was “high activities”.
